Patent EP2379549B1, “7-AZAINDIRUBINS, 7'-AZAINDIRUBINS, 7-7'-DIAZAINDIRUBIN AND THE CORRESPONDING 3'-OXIME ETHER DERIVATES: PRODUCTION THEREOF, THEIR PRODUCTION AND USE AS A MEDICAMENT” (Eisenbrand, Gerhard, priority 2008, dated 2010)

Key:
[1] = test system: C6 glioblastoma cells; conditions: murine C6 glioblastoma cells; parent 5-methylindirubin; cited from earlier work
[2] = test system: human cancer cell lines; assay: Antiproliferative activity against human cancer cell lines; type: cell-based

Cc1cc2c(cc1O)NC(=O)C2=C1Nc2ccccc2C1=O
effectiveness for inhibition of cells versus parent compound [1]: as effective as the parent compound

O=C1Nc2ccccc2C1=C1Nc2ncccc2C1=O [E843, 7'-Azaindirubin]
antiproliferative activity as compared to the parent molecule, indirubin [2]: markedly augmented
